From patent publication US11426381B2, “Lipoic acid choline ester compositions and methods of use” (NOVARTIS AG, priority 2014, dated 2022) come the findings set out here.

Data set [1] concerns lens protein disulfides. The data set is described as follows: In vitro mouse lens protein disulfide analysis. Particulars: eight month old mouse lenses, 12 hours incubation. As for the experimental part: (§1) In vitro test: Eight month old mouse lenses (C57BL/6J) were incubated for 12 hours in medium supplemented with selected levels (0-500 μM) of lipoic acid (LA). Lens elasticity was measured using the coverslip method known. After elasticity measurements, lenses were homogenized in a dissociation medium containing alkylating agent 1 (free SH modification). The homogenate was filtered and the rinsed, resuspended, retentate was treated with reducing agent (TCEP) and alkylating agent 2 (S-S SHs modified). After filtration and rinses, the levels of alkylated SH groups in retentate 2 was determined. Bovine serum albumin was the positive control for the sulfhydryl analysis.

Data set [2] relates to mouse lenses (C57BL/6J). Kind of data set: In vitro mouse lens elasticity (coverslip method). Particulars: eight month old mouse lenses, 12 hours incubation. Here is the method:
as §1

Data set [3] can be described thus: Stability of LACE chloride in propylene glycol (HPLC potency). The format is physicochemical. Particulars: 1.0% in propylene glycol. As for the experimental part: The HPLC method to analyze LACE Chloride used a Phenomenex Luna CN column with a 5 um particle size, 100 A pore size, 2.0 mm inner diameter, and 50 mm length (PN: 00B-4255-B0). The mobile phase consisted of 50% of 0.1 M Sodium Acetate and 50% Acetonitrile. The flow rate was 1.0 mL/min, the detection wavelength was 225 nm, the column temperature was 40° C., the injection volume was 20 uL, and the run time was 50 minutes. The working LACE chloride concentration was 0.1 mg/mL and plastic HPLC vials were used for the analysis.
A solution of LACE chloride in propylene glycol was prepared to determine its stability. A solution of 1.0% LACE chloride in propylene glycol was prepared and stored at −20° C. (ambient RH), 5° C. (ambient RH), and 25° C. (40% RH). The solutions were tested for LACE chloride potency after storage for 3 months.
In these samples, HPLC analysis (using the method described in Example 2) a peak with relative retention time (RRT) of approximately 0.73. […] No additional peaks are detected. The peak at 0.73 RRT is not detected in the LACE chloride solutions in citrate buffer.

A short description of data set [4]: Toxicokinetics (plasma levels) in GLP rabbit study. The format is in vivo. Particulars: rabbits; topical DIOPTIN three times daily. As for the experimental part:
Screening studies were conducted to determine the highest tolerated concentration when applied topically to rabbit eyes, in conjunction with bioanalysis of corneal, aqueous humor, and lens concentrations of EV06 and its metabolites. In a GLP rabbit study, animals were treated with topical 0, 1, 3 or 4% DIOPTIN™ (lipoic acid choline ester) solution three times daily for 90 consecutive days. Slit-lamp exams and fundoscopy were performed at pre-dose baseline and after 1, 30, and 90 days of dosing. Daily clinical observations, food consumption, body weights, clinical pathology, and toxicokinetics were performed. Full necropsy and ocular histopathology were also conducted.

Data set [5] concerns New Zealand white rabbits. The data set is described as follows: Draize test for eye drop ocular safety. The format is in vivo, rabbit. Particulars: EV06 3%-5%. Here is the method:
Safety of the EV06 was evaluated by the Draize test to evaluate its use at concentrations as high as 5%. The Draize Test is an acute toxicity test devised in 1944 by Food and Drug Administration (FDA) toxicologists John H. Draize and Jacob M. Spines. Initially used for testing cosmetics, the procedure involves applying 0.5 mL or 0.5 g of a test substance to the eye or skin of a restrained, conscious animal, and then leaving it for set amount of time before rinsing it out and recording its effects. Corneal, iris, and conjunctival responses were evaluated using the scale described by Draize et al., J. Pharmacol. & Exp. Therapeutics, 82:377-390 (1944)]. Because of the importance of the cornea to vision, 73% of the Draize score is based on corneal damage. A normal score was 0, increasing amounts of damage result in a higher score, with the maximum score possible being 110. A Draize score was computed at each observation time by averaging the total scores of all rabbits tested. Observations were made and recorded 24, 48, and 72 hours after treatment.
This test consists of instilling 30 to 50 μL of the product into one eye of 6 New Zealand white rabbits and monitoring to observe any abnormal clinical signs such as redness of conjunctiva, swelling, or increased blinking which may indicate irritation.

Data set [6] can be described thus: Corneal penetration and ocular pharmacokinetics in rabbits (HPLC-ESI/MS/MS). The format is in vivo, rabbit. Here is the method:
Esters of lipoic acid were evaluated in rabbits for corneal penetration. Rabbits were also used to examine the metabolism, absorption, and distribution of LACE (LA prodrug) using HPLC-ESI/MS/MS (LOD>2 ng/ml).

Data set [7] in a line: Stability of LACE in neat glycerol. The format is physicochemical. The following applies: mixed in neat glycerol, 80° C. for 8 hours. Here is the method: Lipoic acid choline ester was mixed in neat glycerol (no water) with brief heating to 80° C. for 8 hours. High concentrations of lipoic acid choline ester in a final clear solution were found. The final clear solution is stable.

Molecules are shown by their SMILES.

With `O=C(O)CCCCC1CCSS1` (centres unmarked) [LA, lipoic acid], in data set [1], the “concentration of maximal effect on lens protein disulfides” value is 100 µM. For the same molecule, the EC50 worked out at 50 ± 10 µM in data set [1] (0-500 μM LA, read-out: [LA]50 for decrease in lens protein disulfides) and 50 ± 10 µM in data set [2] (0-500 μM LA, read-out: [LA]50 for increase in lens elasticity). Also, the “concentration of maximal effect on lens elasticity” value in data set [2] was found to be 100 µM.
As to `C[N+](C)(C)CCOC(=O)CCCC[C@@H]1CCSS1.[Cl-]` [LACE chloride, lipoic acid choline ester chloride], in data set [3] (3 months storage at 5° C. and 25° C.), the “stability of LACE chloride in propylene glycol” value is given as “not stable”. Also, the “conversion to peak at RRT approximately 0.73” value in data set [3] (stored at room temperature, 3 months) is “completely converted”.
Turning to `C[N+](C)(C)CCOC(=O)CCCC[C@@H]1CCSS1` [LACE, lipoic acid choline ester], the “Plasma levels of EV06” value in data set [4] is listed as “at or below the limits of detection”. Also, the “Draize Rabbit Eye test score” value in data set [5] (30 to 50 μL into one eye, scale 0 to 110) is on record as 2.0+/−0.6. For the same molecule, the Draize test classification result in data set [5] (New Zealand white rabbits) was “not corrosive or irritating”. In addition, the “corneal penetration compared with lipoic acid” value in data set [6] is on record as “improve penetration over lipoic acid”. Further, in data set [7], the “stability of clear solution in neat glycerol” value is listed as “stable”.
